Molecular target: T1, TRPML1 (Homo sapiens, UniProt Q9GZU1)
T1 construct: expressed in transfected cells; host or cells: HEK T-REx cells stably expressing GCaMP6f and TRPML1
Experiment: Cellular TRPML1 assay (FLIPR, GCaMP6f calcium read-out)
Type: cell-based
Conditions: not given
Procedure: Example A: Cellular TRPML1 Assay
The final clone for the TRPML1 assay is HEKT-REx/GCaMP6f/TRPML1. GCaMP6f is a genetically encoded calcium indicator that is stably expressed in this cell line and used as a fluorescent read-out.
Experiments were performed in 384 MTP format. Cells are seeded at 15000 cells/well in 20 μl/well of Optimem+0.5% FBS without selection antibiotics. Twenty-four hours later, cells are assayed for the response to various compounds using the Ca^2+ sensitive GCaMP6f protein stably expressed in the cells as readout.
The experiment was performed in a 384-well format according to the following procedures: • 24 h after seeding, the cells were pre-incubated at room temperature for about 10 min. • Started the experiment at the FLIPR^TETRA by injecting 10 μL/w of 3× concentrated test compounds and controls in Ca^2+ free Tyrode's buffer. Monitored the kinetic response over a period of 300 seconds. • Final DMSO concentration: 0.5%
Data from FLIPR^TETRA measurements were analyzed with the Genedata Screener© software.

T1 sequence (Q9GZU1 whole entry): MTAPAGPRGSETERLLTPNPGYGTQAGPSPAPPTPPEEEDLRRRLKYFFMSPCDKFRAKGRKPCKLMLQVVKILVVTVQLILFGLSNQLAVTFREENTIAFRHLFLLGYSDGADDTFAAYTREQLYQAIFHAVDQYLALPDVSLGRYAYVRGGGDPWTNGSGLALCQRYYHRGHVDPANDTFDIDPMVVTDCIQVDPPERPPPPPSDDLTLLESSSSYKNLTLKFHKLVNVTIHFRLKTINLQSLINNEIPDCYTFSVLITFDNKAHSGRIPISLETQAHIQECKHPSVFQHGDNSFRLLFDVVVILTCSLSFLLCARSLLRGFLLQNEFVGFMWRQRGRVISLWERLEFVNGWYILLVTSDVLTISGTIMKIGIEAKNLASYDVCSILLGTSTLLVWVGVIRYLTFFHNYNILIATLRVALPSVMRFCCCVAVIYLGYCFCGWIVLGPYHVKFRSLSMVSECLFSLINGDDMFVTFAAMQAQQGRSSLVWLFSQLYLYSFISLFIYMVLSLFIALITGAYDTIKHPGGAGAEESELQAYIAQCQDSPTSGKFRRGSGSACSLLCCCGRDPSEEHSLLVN

Compound | EC50 [nM]
CCC1(OC)CN(c2nc(C(=O)Nc3cc(C)c(N4C5CCCC4CC5)c(F)c3)c(CCF)o2)C1 [Example 291, N-(4-(8-azabicyclo[3.2.1]octan-8-yl)-3-fluoro-5-methylphenyl)-2-(3-ethyl-3-methoxyazetidin-1-yl)-5-(2-fluoroethyl)oxazole-4-carboxamide] | 10 to 1000
O=C(Nc1cc(F)c(N2CC3CC(C3)C2)c(F)c1)c1nc(N2CCCC2)oc1CC(F)(F)F [Example 209, N-(4-(3-azabicyclo[3.1.1]heptan-3-yl)-3,5-difluorophenyl)-2-(pyrrolidin-1-yl)-5-(2,2,2-trifluoroethyl)oxazole-4-carboxamide] | 10 to 1000

Same assay, conditions: HEKT-REx/GCaMP6f/TRPML1 cells, FLIPR TETRA, kinetic response over 300 seconds; read-out: TRPML1 FLIPR pEC50 (converted)

EC50 [nM] | Compound
1000 to 10000 | O=C(Nc1ccc(OC2CCCC23CCC3)c(F)c1)c1nc(N2CCCC2)oc1CC(F)(F)F (stereo not shown) [Example 67, N-(3-fluoro-4-{spiro[3.4]octan-5-yloxy}phenyl)-2-(pyrrolidin-1-yl)-5-(2,2,2-trifluoroethyl)oxazole-4-carboxamide]
1000 to 10000 | O=C(Nc1ccc(OC2CCCC2(F)F)c(O)c1)c1nc(N2CCCC2)oc1CC(F)(F)F (stereo not shown) [Example 86, N-{4-[(2,2-difluorocyclopentyl)oxy]-3-hydroxyphenyl}-2-(pyrrolidin-1-yl)-5-(2,2,2-trifluoroethyl)-1,3-oxazole-4-carboxamide]
10000 to 100000 | CCN(c1ccc(NC(=O)c2nc(N3CCCC3)oc2CC(F)(F)F)cc1F)C1CCCC1(F)F (stereo not shown) [Example 87, N-(4-((2,2-difluorocyclopentyl)(ethyl)amino)-3-fluorophenyl)-2-(pyrrolidin-1-yl)-5-(2,2,2-trifluoroethyl)oxazole-4-carboxamide]
1000 to 10000 | COCc1oc(N2CCCC2)nc1C(=O)Nc1ccc(OC2CCCC2(F)F)c(F)c1 (stereo not shown) [Example 105, N-(4-((2,2-difluorocyclopentyl)oxy)-3-fluorophenyl)-5-(methoxymethyl)-2-(pyrrolidin-1-yl)oxazole-4-carboxamide]
10 to 1000 | O=C(Nc1cc(F)c(O[C@@H]2C[C@@H]3C[C@@H]3C2)c(F)c1)c1nc(N2CC3(CCOC3)C2)oc1CC(F)(F)F [Example 189, N-(4-(cis-bicyclo[3.1.0]hexan-3-yloxy)-3,5-difluorophenyl)-2-(6-oxa-2-azaspiro[3.4]octan-2-yl)-5-(2,2,2-trifluoroethyl)oxazole-4-carboxamide]
10 to 1000 | O=C(Nc1ccc(OC2CCCC2(F)F)c(F)c1)c1nc(N2CC3CCCC3C2)oc1CC(F)(F)F (stereo not shown) [Example 23, N-(4-((2,2-difluorocyclopentyl)oxy)-3-fluorophenyl)-2-(hexahydrocyclopenta[c]pyrrol-2(1H)-yl)-5-(2,2,2-trifluoroethyl)oxazole-4-carboxamide]
1000 to 10000 | Cc1oc(-n2cccc2)nc1C(=O)Nc1ccc(N2CCCCC2)c(F)c1 [Example 113, N-(3-fluoro-4-(piperidin-1-yl)phenyl)-5-methyl-2-(1H-pyrrol-1-yl)oxazole-4-carboxamide]
10000 to 100000 | COCc1oc(N2CCCC2C)nc1C(=O)Nc1ccc(N2CCCCC2)c(F)c1 (stereo not shown) [Example 103, N-(3-fluoro-4-(piperidin-1-yl)phenyl)-5-(methoxymethyl)-2-(2-methylpyrrolidin-1-yl)oxazole-4-carboxamide]
1000 to 10000 | Cc1oc(N2C[C@H]3CCO[C@H]3C2)nc1C(=O)Nc1ccc(N2CCCCC2)c(F)c1 [Example 123, N-(3-fluoro-4-(piperidin-1-yl)phenyl)-2-((3aR,6aR)-hexahydro-5H-furo[2,3-c]pyrrol-5-yl)-5-methyloxazole-4-carboxamide]
1000 to 10000 | CCC1(CC)CN(c2nc(C(=O)Nc3cc(C)c(O[C@@H]4C[C@@H]5C[C@@H]5C4)c(F)c3)c(CN3CCC3)o2)C1 [Example 297, 5-(azetidin-1-ylmethyl)-N-(4-(cis-bicyclo[3.1.0]hexan-3-yloxy)-3-fluoro-5-methylphenyl)-2-(3,3-diethylazetidin-1-yl)oxazole-4-carboxamide]
1000 to 10000 | O=C(Nc1ccc(OC2CCCC23CC3)c(F)c1)c1nc(N2CCCC2)oc1CC(F)(F)F (stereo not shown) [Example 52, N-(3-fluoro-4-(spiro[2.4]heptan-4-yloxy)phenyl)-2-(pyrrolidin-1-yl)-5-(2,2,2-trifluoroethyl)oxazole-4-carboxamide]
10 to 1000 | COC1(C)CN(c2nc(C(=O)Nc3cc(C)c(O[C@@H]4C[C@@H]5C[C@@H]5C4)c(O)c3)c(CC(F)(F)F)o2)C1 [Example 263, N-(4-(cis-bicyclo[3.1.0]hexan-3-yloxy)-3-hydroxy-5-methylphenyl)-2-(3-methoxy-3-methylazetidin-1-yl)-5-(2,2,2-trifluoroethyl)oxazole-4-carboxamide]
10 to 1000 | O=C(Nc1ccc(O[C@@H]2CC3C[C@@H]3C2)c(F)c1)c1nc(N2CC3OCOC3C2)oc1CC(F)(F)F (stereo partly drawn) [Example 153, N-(4-(cis-bicyclo[3.1.0]hexan-3-yloxy)-3-fluorophenyl)-2-(tetrahydro-5H-[1,3]dioxolo[4,5-c]pyrrol-5-yl)-5-(2,2,2-trifluoroethyl)oxazole-4-carboxamide]
1000 to 10000 | O=C(Nc1cc(F)c2c(c1)CCN2C1CC2CC2C1)c1nc(N2CCC3(COC3)C2)oc1CC(F)(F)F (stereo not shown) [Example 314, N-(1-(bicyclo[3.1.0]hexan-3-yl)-7-fluoroindolin-5-yl)-2-(2-oxa-6-azaspiro[3.4]octan-6-yl)-5-(2,2,2-trifluoroethyl)oxazole-4-carboxamide]
10000 to 100000 | O=C(Nc1ccc(OC2CCCC2(F)F)c(F)c1)c1nc(N2Cc3ccccc3C2)oc1CC(F)(F)F (stereo not shown) [Example 1, N-{4-[(2,2-difluorocyclopentyl)oxy]-3-fluorophenyl}-2-(2,3-dihydro-1H-isoindol-2-yl)-5-(2,2,2-trifluoroethyl)-1,3-oxazole-4-carboxamide]
1000 to 10000 | CCC1(CC)CN(c2nc(C(=O)Nc3cc(F)c(OC4CCCC5(CC5)C4)c(F)c3)c(CC(F)(F)F)o2)C1 (stereo not shown) [Example 132, 2-(3,3-diethylazetidin-1-yl)-N-(3,5-difluoro-4-(spiro[2.5]octan-5-yloxy)phenyl)-5-(2,2,2-trifluoroethyl)oxazole-4-carboxamide]
1000 to 10000 | Cc1cc(NC(=O)c2nc(N3CCCC3)oc2CN2CCC2)cc(F)c1O[C@@H]1C[C@@H]2C[C@@H]2C1 [Example 305, 5-(azetidin-1-ylmethyl)-N-(4-(cis-bicyclo[3.1.0]hexan-3-yloxy)-3-fluoro-5-methylphenyl)-2-(pyrrolidin-1-yl)oxazole-4-carboxamide]
10 to 1000 | O=C(Nc1cc(F)c(OC2CC3CC(C3)C2)c(F)c1)c1nc(N2CCCC2)oc1CC(F)(F)F (stereo not shown) [Example 169, N-(4-(bicyclo[3.1.1]heptan-3-yloxy)-3,5-difluorophenyl)-2-(pyrrolidin-1-yl)-5-(2,2,2-trifluoroethyl)oxazole-4-carboxamide]
10000 to 100000 | Cc1oc(N2CCN(C3CC3)CC2)nc1C(=O)Nc1ccc(N2CCCCC2)c(F)c1 [Example 94, 2-(4-cyclopropylpiperazin-1-yl)-N-(3-fluoro-4-(piperidin-1-yl)phenyl)-5-methyloxazole-4-carboxamide]
10 to 1000 | CCc1oc(N2CC3COCC3C2)nc1C(=O)Nc1cc(F)c(OC2CC3C[C@H]3C2)c(F)c1 (stereo partly drawn) [Example 237, N-(4-(cis-bicyclo[3.1.0]hexan-3-yloxy)-3,5-difluorophenyl)-5-ethyl-2-(tetrahydro-1H-furo[3,4-c]pyrrol-5(3H)-yl)oxazole-4-carboxamide]
1000 to 10000 | O=C(Nc1ccc(OC2CCC3CC32)c(F)c1)c1nc(N2CCCC2)oc1CC(F)(F)F (stereo not shown) [Example 51, N-(4-{bicyclo[3.1.0]hexan-2-yloxy}-3-fluorophenyl)-2-(pyrrolidin-1-yl)-5-(2,2,2-trifluoroethyl)oxazole-4-carboxamide]
10000 to 100000 | Cc1oc(N2CCC(C)C2)nc1C(=O)Nc1ccc(N2CCCCC2)c(F)c1 (stereo not shown) [Example 122, N-(3-fluoro-4-(piperidin-1-yl)phenyl)-5-methyl-2-(3-methylpyrrolidin-1-yl)oxazole-4-carboxamide]
1000 to 10000 | CCC1(OC)CN(c2nc(C(=O)Nc3cc(F)c(N4CCC5CCCC54)c(F)c3)c(CC(F)(F)F)o2)C1 (stereo not shown) [Example 205, N-(3,5-difluoro-4-(hexahydrocyclopenta[b]pyrrol-1(2H)-yl)phenyl)-2-(3-ethyl-3-methoxyazetidin-1-yl)-5-(2,2,2-trifluoroethyl)oxazole-4-carboxamide]
10 to 1000 | CCc1oc(N2CC(CC)(CC)C2)nc1C(=O)Nc1cc(F)c(OC2CCCOC2)c(F)c1 (stereo not shown) [Example 236, 2-(3,3-diethylazetidin-1-yl)-N-(3,5-difluoro-4-((tetrahydro-2H-pyran-3-yl)oxy)phenyl)-5-ethyloxazole-4-carboxamide]
1000 to 10000 | O=C(Nc1ccc(OCC2CC3CC3C2)c(F)c1)c1nc(N2CCCC2)oc1CC(F)(F)F (stereo not shown) [Example 190, N-(4-(bicyclo[3.1.0]hexan-3-ylmethoxy)-3-fluorophenyl)-2-(pyrrolidin-1-yl)-5-(2,2,2-trifluoroethyl)oxazole-4-carboxamide]

Compound | EC50 [nM]
CCc1oc(N2CC(C)(OC)C2)nc1C(=O)Nc1cc(F)c(N2CC3CC(C3)C2)c(F)c1 [Example 258, N-(4-(3-azabicyclo[3.1.1]heptan-3-yl)-3,5-difluorophenyl)-5-ethyl-2-(3-methoxy-3-methylazetidin-1-yl)oxazole-4-carboxamide] | 1000 to 10000

Reference: patent US12098145B2 (Libra Therapeutics, Inc., priority 2022, dated 2024)
